Source: article PMC6982876, “Synthesis of Novel Benzodifuranyl; 1,3,5-Triazines; 1,3,5-Oxadiazepines; and Thiazolopyrimidines Derived from Visnaginone and Khellinone as Anti-Inflammatory and Analgesic Agents” (Molecules, 2020)
Marks after values point to notes of the source that are not given here. One block for each molecule: values may come before it.

Experiments:
[1] = target: T1, ovine COX-1 (Ovis aries, UniProt P05979); assay: In vitro COX inhibitor screening assay (EIA kit, Cayman), COX-1; type: biochemical; settings: mean of two determinations, enzyme kit, read-out: COX1 IC50
T1 construct: purchased Cayman Chemical, Ann Arbor, MI, USA 560131
T1 sequence (P05979 25-600): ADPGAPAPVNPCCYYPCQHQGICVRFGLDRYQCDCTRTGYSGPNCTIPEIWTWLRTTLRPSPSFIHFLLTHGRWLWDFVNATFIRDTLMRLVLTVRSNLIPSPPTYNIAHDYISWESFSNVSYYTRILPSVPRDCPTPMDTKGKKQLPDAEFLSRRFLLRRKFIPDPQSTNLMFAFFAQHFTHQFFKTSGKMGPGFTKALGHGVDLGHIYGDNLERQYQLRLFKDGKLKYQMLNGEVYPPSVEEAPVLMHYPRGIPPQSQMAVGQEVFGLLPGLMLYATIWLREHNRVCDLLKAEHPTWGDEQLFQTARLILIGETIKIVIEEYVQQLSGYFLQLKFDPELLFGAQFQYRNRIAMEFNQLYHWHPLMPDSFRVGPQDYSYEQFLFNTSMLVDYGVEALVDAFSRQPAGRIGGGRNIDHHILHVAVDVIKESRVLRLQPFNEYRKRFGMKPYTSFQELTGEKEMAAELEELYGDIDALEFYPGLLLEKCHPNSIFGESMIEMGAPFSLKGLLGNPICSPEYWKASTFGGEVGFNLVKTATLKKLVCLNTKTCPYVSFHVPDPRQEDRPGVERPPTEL
Protocol: (§1) Furthermore, the selectivity index for COX-2 (COX-1 IC50 / COX-2 IC50) was calculated for the compounds.

[2] = tested on: acetic acid-induced writhing in mice; assay: Acetic acid-induced writhing test (analgesic activity); type: in vivo; settings: 10 mg/kg p.o., n = 5; for Writhing Number in 20 min (Mean ± SEM): acetic acid 1 h after dosing; for Analgesic Activity (% protection): writhing test
Protocol: The analgesic activity of the compounds was performed using the writhing test as described by Gawade et al.. Mice weight ranged from 25 to 30 g. Then, mice were divided into 18 different groups, each containing five animals. The animals fasted for 8 h before the experiment. Administration of the compounds (10 mg/kg, p.o.) was performed orally. Equal doses of diclofenac as the reference drug and saline as a negative control were also administrated orally. Writhing was induced one hour after compound administration by using 0.1 mL of 1% glacial acetic acid at a volume of 0.1 mL/10 g body weight. The number of writhing responses (stretching of the abdomen, extension of hind limbs, twisting of the trunk, and elongation of the body) observed was counted for 20 min. The protection percentile against acetic acid-induced writhing was calculated according to the following formula: (1) Analgesic activity (%) =n−n′/n×100* where n is the mean number of writhes of the control group, and n’ is the mean number of writhes of the tested compound group.

[3] = tested on: carrageenan-induced paw edema in rats; assay: Carrageenan-induced paw edema (anti-inflammatory activity); type: in vivo; settings: 10 mg/kg oral; for % Change in Paw Height (Mean ± SEM): n = 5
Protocol: Albino rats (150–180 g) were used. The rats were divided into 11 experimental groups of five rats each. One hour after oral administration of the compounds (10 mg/kg), 0.1 mL of 1% carrageenan solution was injected in the left hind paw of each animal. Rat paw volumes were measured with a digital caliber plethysmometer (UGO Basile, Varese, Italy) used to measure inflammation height at 0, 1, 2, and 3 h after carrageenan injection. The percentage increase in inflammation in the left hind paw, in comparison to the uninjected right hind paw, was determined, calculated, and expressed as the amount of inflammation. […] The anti-inflammatory activity of the selected analgesic compounds after 3 h was expressed as percentage inhibition of edema, which was calculated according to the following equation: (2) Inhibition of edema (%) =Vcont−Vtest/Vcont×100* where V cont is the edema volume in the control group, and V test is the edema volume in the group of the screened compound.

[4] = target: T2, human recombinant COX-2 (Homo sapiens, UniProt P35354); assay: In vitro COX inhibitor screening assay (EIA kit, Cayman), COX-2; type: biochemical; settings: for COX2 (SI) selectivity index: COX-1 IC50 / COX-2 IC50; for IC50: COX-2, mean of two determinations, enzyme kit, read-out: COX2 IC50
T2 construct: purchased Cayman Chemical, Ann Arbor, MI, USA 560131
T2 sequence (P35354 18-604): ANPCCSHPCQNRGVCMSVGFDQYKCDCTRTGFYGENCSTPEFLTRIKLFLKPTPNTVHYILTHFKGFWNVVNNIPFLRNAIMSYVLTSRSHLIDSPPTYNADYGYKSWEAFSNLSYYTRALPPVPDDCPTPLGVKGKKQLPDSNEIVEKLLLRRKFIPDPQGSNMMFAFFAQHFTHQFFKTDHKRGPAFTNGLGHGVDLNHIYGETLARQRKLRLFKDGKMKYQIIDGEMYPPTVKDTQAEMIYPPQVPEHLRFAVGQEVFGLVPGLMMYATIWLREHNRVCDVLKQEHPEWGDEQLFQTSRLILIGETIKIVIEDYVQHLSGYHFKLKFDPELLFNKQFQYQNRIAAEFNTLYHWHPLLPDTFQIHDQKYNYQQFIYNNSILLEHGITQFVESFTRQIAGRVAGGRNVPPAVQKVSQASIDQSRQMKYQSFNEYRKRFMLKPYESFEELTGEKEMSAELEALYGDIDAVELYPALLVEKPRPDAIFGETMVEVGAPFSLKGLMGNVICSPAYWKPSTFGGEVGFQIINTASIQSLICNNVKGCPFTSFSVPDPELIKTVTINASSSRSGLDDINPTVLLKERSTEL
Protocol: as §1

[5] = tested on: interleukin-1 beta (IL-1 β); assay: ELISA of serum interleukin-1 beta after paw edema test; type: in vivo, rats; settings: rat serum at the end of the paw edema test, mean ± SEM, n = 5
Protocol: IL1 is one of the important inflammatory mediators and is used to confirm the anti-inflammatory activities of new anti-inflammatory compounds. At the end of the paw edema test, blood samples were collected from the orbital axis of the eye under light ether anesthesia. Sera were separated after centrifugation of blood at 5000 rpm for 15 min; the sera were stored at –80 °C until the ELISA assay was performed according to the manufacturer instructions.

SMILES: COc1c2ccoc2cc2oc(C3=NC4=CC(=O)N5C(=O)CSC5N4C(=O)CO3)c(C)c12 (stereo not drawn) [Compound 12a, 8-(4-methoxy-3-methylbenzo[1,2-b:5,4-b`]difuran-2-yl)-5H,12aH-thiazolo[2’,3’:2,3] pyrimido[6,1-d][1,3,5]oxadiazepine-3,5,11(2H,10H)-trione]
IC50 [1]: 6400 nM
Writhing Number in 20 min (Mean ± SEM) [2]: 35 ± 1.2 ^a
Analgesic Activity (% protection) [2]: 40 ± 1.50 ^a %
% Change in Paw Height (Mean ± SEM) ([3]; 1 hr after carrageenan): 0.28 ± 0.02 ^a %
% Change in Paw Height (Mean ± SEM) ([3]; 2 hr after carrageenan): 0.23 ± 0.01 ^a %
Anti-Inflammatory Activity (% Inhibition of Edema) ([3]; 3 hr after carrageenan): 57%
% Change in Paw Height (Mean ± SEM) ([3]; 3 hr after carrageenan): 0.26 ± 0.01 ^a %
melting point: > 350 °C
COX2 (SI) selectivity index [4]: 85
IC50 [4]: 75 nM
IL-1 β Concentration [5]: 41 ± 0.85 ^b Pg /mL

SMILES: COc1c2ccoc2cc2oc(C(=Nc3cc(N4CCNCC4)nc(N4CCNCC4)n3)N3CCNCC3)c(C)c12 [Compound 10a, N-(2,6-di (piperazin-1-yl)pyrimidin-4-yl)-1-(4-methoxy-3-methylbenzo [1,2-b: 5,4-b`]difuran-2-yl)-1-(piperazin-1-yl) methanimine]
IC50 [1]: 4230 nM
Writhing Number in 20 min (Mean ± SEM) [2]: 25 ± 1.3 ^a
Analgesic Activity (% protection) [2]: 50 ± 1.6 ^a %
% Change in Paw Height (Mean ± SEM) ([3]; 1 hr after carrageenan): 0.19 ± 0.01 ^a %
% Change in Paw Height (Mean ± SEM) ([3]; 2 hr after carrageenan): 0.14 ± 0.02 ^a %
Anti-Inflammatory Activity (% Inhibition of Edema) ([3]; 3 hr after carrageenan): 67%
% Change in Paw Height (Mean ± SEM) ([3]; 3 hr after carrageenan): 0.16 ± 0.02 ^a %
melting point: > 350 °C
COX2 (SI) selectivity index [4]: 98
IC50 [4]: 43 nM
IL-1 β Concentration [5]: 31 ± 0.55 ^b Pg /mL

Further lines, with some results ahead:

IC50 [1]: 5710 nM
melting point: > 350 °C
COX2 (SI) selectivity index [4]: 91
IC50 [4]: 63 nM
SMILES: COc1c2occc2c(OC)c2c(C)c(C3=NC4=CC(=O)N5C(=O)C(=Cc6ccccc6)SC5N4C(=O)C(=Cc4ccccc4)O3)oc12 (stereo not drawn) [Compound 13d, 2,10-di(benzylidene)-8-(4,8-dimethoxy-3-methylbenzo[1,2-b:5,4-b`]difuran-2-yl)-5H, 12aH -thiazolo[2’,3’:2,3]pyrimido[6,1-d][1,3,5]oxadiazepine-3,5,11(2H,10H)-trione]
Writhing Number in 20 min (Mean ± SEM) [2]: 32 ± 1.4 ^a
Analgesic Activity (% protection) [2]: 43 ± 1.90 ^a %
% Change in Paw Height (Mean ± SEM) ([3]; 1 hr after carrageenan): 0.26 ± 0.01 ^a %
% Change in Paw Height (Mean ± SEM) ([3]; 2 hr after carrageenan): 0.20 ± 0.02 ^a %
Anti-Inflammatory Activity (% Inhibition of Edema) ([3]; 3 hr after carrageenan): 60%
% Change in Paw Height (Mean ± SEM) ([3]; 3 hr after carrageenan): 0.23 ± 0.02 ^a %
IL-1 β Concentration [5]: 38 ± 0.62 ^b Pg /mL

IC50 [1]: 5200 nM
melting point: > 350 °C
COX2 (SI) selectivity index [4]: 95
IC50 [4]: 55 nM
SMILES: COc1c2ccoc2cc2oc(C3=NC4=CC(=O)N5C(=O)C(=Cc6ccc(Cl)cc6)SC5N4C(=O)C(=Cc4ccc(Cl)cc4)O3)c(C)c12 (stereo not drawn) [Compound 13b, 2,10-bis(4-chlorobenzylidene)-8-(4-methoxy-3-methylbenzo[1,2-b:5,4-b`]difuran-2-yl)-5H, 12aH-thiazolo[2’,3’:2,3]pyrimido[6,1-d][1,3,5]oxadiazepine-3,5,11(2H,10H)-trione]
Writhing Number in 20 min (Mean ± SEM) [2]: 29 ± 1.5 ^a
Analgesic Activity (% protection) [2]: 46 ± 1.6 ^a %
% Change in Paw Height (Mean ± SEM) ([3]; 1 hr after carrageenan): 0.23 ± 0.02 ^a %
% Change in Paw Height (Mean ± SEM) ([3]; 2 hr after carrageenan): 0.18 ± 0.01 ^a %
Anti-Inflammatory Activity (% Inhibition of Edema) ([3]; 3 hr after carrageenan): 63%
% Change in Paw Height (Mean ± SEM) ([3]; 3 hr after carrageenan): 0.20 ± 0.02 ^a %
IL-1 β Concentration [5]: 35 ± 0.28 ^b Pg /mL

IC50 [1]: 5520 nM
melting point: > 350 °C
COX2 (SI) selectivity index [4]: 92
IC50 [4]: 60 nM
SMILES: COc1ccc(C=C2OC(c3oc4cc5occc5c(OC)c4c3C)=NC3=CC(=O)N4C(=O)C(=Cc5ccc(OC)cc5)SC4N3C2=O)cc1 (stereo not drawn) [Compound 13c, 8-(4-methoxy-3-methylbenzo[1,2-b:5,4-b`]difuran-2-yl)-2,10-bis(4-methoxybenzylidene)-5H,12aH-thiazolo[2’,3’:2,3]pyrimido[6,1-d][1,3,5]oxadiazepine-3,5,11(2H,10H)-trione]
Writhing Number in 20 min (Mean ± SEM) [2]: 31 ± 1.1 ^a
Analgesic Activity (% protection) [2]: 44 ± 0.85 ^a %
% Change in Paw Height (Mean ± SEM) ([3]; 1 hr after carrageenan): 0.25 ± 0.01 ^a %
% Change in Paw Height (Mean ± SEM) ([3]; 2 hr after carrageenan): 0.19 ± 0.02 ^a %
Anti-Inflammatory Activity (% Inhibition of Edema) ([3]; 3 hr after carrageenan): 61%
% Change in Paw Height (Mean ± SEM) ([3]; 3 hr after carrageenan): 0.22 ± 0.02 ^a %
IL-1 β Concentration [5]: 37 ± 0.57 ^b Pg /mL

IC50 [1]: 5450 nM
melting point: > 350 °C
COX2 (SI) selectivity index [4]: 94
IC50 [4]: 58 nM
SMILES: COc1ccc(C=C2OC(c3oc4c(OC)c5occc5c(OC)c4c3C)=NC3=CC(=O)N4C(=O)C(=Cc5ccc(OC)cc5)SC4N3C2=O)cc1 (stereo not drawn) [Compound 13f, 8-(4,8-dimethoxy-3-methylbenzo[1,2-b:5,4-b`]difuran-2-yl)-2,10-bis(4-methoxybenzylidene)-5H,12aH-thiazolo[2’,3’:2,3]pyrimido[6,1-d][1,3,5]oxadiazepine-3,5,11(2H,10H)-trione]
Writhing Number in 20 min (Mean ± SEM) [2]: 30 ± 1.8 ^a
Analgesic Activity (% protection) [2]: 45 ± 0.95 ^a %
% Change in Paw Height (Mean ± SEM) ([3]; 1 hr after carrageenan): 0.24 ± 0.02 ^a %
% Change in Paw Height (Mean ± SEM) ([3]; 2 hr after carrageenan): 0.18 ± 0.02 ^a %
Anti-Inflammatory Activity (% Inhibition of Edema) ([3]; 3 hr after carrageenan): 62%
% Change in Paw Height (Mean ± SEM) ([3]; 3 hr after carrageenan): 0.21 ± 0.01 ^a %
IL-1 β Concentration [5]: 36 ± 0.25 ^b Pg /mL
